| Structure (SMILES) | melting point |
| --- | --- |
| Cc1ccc(-c2c3n(c(=O)c4ncccc24)CCC(C)CN(Cc2cc(C(F)(F)F)cc(C(F)(F)F)c2)C3=O)cc1 (racemic) [Reference Example 70, (+/−)-7-[3,5-Bis(trifluoromethyl)benzyl]-6,7,8,9,10,11-hexahydro-9-methyl-5-(4-methylphenyl)-6,13-dioxo-13H-[1,4]diazocino[2,1-g][1,7]naphthyridine] | 280 to 281 °C |
| Cc1ccc(-c2c3n(c(=O)c4ncccc24)CCN(Cc2cc(C(F)(F)F)cc(C(F)(F)F)c2)C3=O)cc1 [Reference Example 55, 7-[3,5-Bis(trifluoromethyl)benzyl]-6,7,8,9-tetrahydro-5-(4-methylphenyl)-6,11-dioxo-11H-pyrazino[2,1-g][1,7]naphthyridine] | 270 to 271 °C |
| Cc1ccc(-c2c3n(c(=O)c4ncccc24)CC[C@@H](C)CN(Cc2cc(C(F)(F)F)cc(C(F)(F)F)c2)C3=O)cc1 [Reference Example 72, (9R)-7-[3,5-Bis(trifluoromethyl)benzyl]-6,7,8,9,10,11-hexahydro-9-methyl-5-(4-methylphenyl)-6,13-dioxo-13H-[1,4]diazocino[2,1-g][1,7]naphthyridine] | 226 to 228 °C |
| C[C@H]1CCn2c(c(-c3ccccc3)c3cccnc3c2=O)C(=O)N(Cc2cc(C(F)(F)F)cc(C(F)(F)F)c2)C1 [Reference Example 73, (9S)-7-[3,5-Bis(trifluoromethyl)benzyl]-6,7,8,9,10,11-hexahydro-9-methyl-6,13-dioxo-5-phenyl-13H-[1,4]diazocino[2,1-g] [1,7]naphthyridine] | 242 to 244 °C |
| Cc1ccc(-c2c3n(c(=O)c4ncccc24)CC[C@H](C)CN(Cc2cc(C(F)(F)F)cc(C(F)(F)F)c2)C3=O)cc1 [Reference Example 74, (9S)-7-[3,5-Bis(trifluoromethyl)benzyl]-6,7,8,9,10,11-hexahydro-9-methyl-5-(4-methylphenyl)-6,13-dioxo-13H-[1,4]diazocino[2,1-g][1,7]naphthyridine] | 227 to 228 °C |
| Cc1cnc2c(c1-c1ccccc1)C(=O)N(Cc1cc(C(F)(F)F)cc(C(F)(F)F)c1)C[C@@H](C)CO2 [Reference Example 86, (R)-5-[3,5-Bis(trifluoromethyl)benzyl]-2,3,4,5-tetrahydro-3,8-dimethyl-6-oxo-7-phenyl-6H-pyrido[2,3-b][1,5]oxazocine] | 147 to 149 °C |
| Cc1cnc2c(c1-c1ccccc1)C(=O)N(Cc1cc(C(F)(F)F)cc(C(F)(F)F)c1)CCN(C)C2=O [Reference Example 104, 6-[3,5-Bis(trifluoromethyl)benzyl]-5,6,7,8,9,10-hexahydro-3,9-dimethyl-5,10-dioxo-4-phenylpyrido[2,3-f][1,4]diazocine] | 203 to 205 °C |
| Cc1cnc2c(c1-c1ccccc1)C(=O)N(Cc1ccccc1)CCN(C)C2=O [Reference Example 106, 6-Benzyl-5,6,7,8,9,10-hexahydro-3,9-dimethyl-5,10-dioxo-4-phenylpyrido[2,3-f][1,4]diazocine] | 183 to 184 °C |
| CCN1CCN(Cc2cc(C(F)(F)F)cc(C(F)(F)F)c2)C(=O)c2c(ncc(C)c2-c2ccccc2)C1=O [Reference Example 107, 6-[3,5-Bis(trifluoromethyl)benzyl]-9-ethyl-5,6,7,8,9,10-hexahydro-3-methyl-5,10-dioxo-4-phenylpyrido[2,3-f][1,4]diazocine] | 228 to 229 °C |
| COc1cc(CN2CCOc3nccc(-c4ccccc4)c3C2=O)cc(OC)c1OC [Reference Example 118, 2,3,4,5-Tetrahydro-5-oxo-6-phenyl-4-(3,4,5-trimethoxybenzyl)pyrido[3,2-f][1,4]oxazepine] | 177 to 179 °C |
| O=C1c2c(-c3ccccc3)ccnc2OCCN1Cc1ccc(Cl)c(Cl)c1 [Reference Example 119, 4-(3,4-Dichlorobenzyl)-2,3,4,5-tetrahydro-5-oxo-6-phenylpyrido[3,2-f][1,4]oxazepine] | 189 to 192 °C |
| COc1ccc(CN2CCOc3nccc(-c4ccccc4)c3C2=O)cc1OC [Reference Example 120, 4-(3,4-Dimethoxybenzyl)-2,3,4,5-tetrahydro-5-oxo-6-phenylpyrido[3,2-f][1,4]oxazepine] | 175 to 176 °C |
| O=C1c2c(-c3ccccc3)ccnc2OCCN1Cc1ccccc1 [Reference Example 121, 4-Benzyl-2,3,4,5-tetrahydro-5-oxo-6-phenylpyrido[3,2-f][1,4]oxazepine] | 209 to 211 °C |
| COc1cc(CN2CCCOc3nccc(-c4ccccc4)c3C2=O)cc(OC)c1OC [Reference Example 122, 2,3,4,5-Tetrahydro-6-oxo-7-phenyl-5-(3,4,5-trimethoxybenzyl)-6H-pyrido[2,3-b][1,5]oxazocine] | 155 to 156 °C |
| C[C@@H]1COc2nccc(-c3ccccc3)c2C(=O)N(Cc2ccccc2)C1 [Reference Example 123, (S)-5-Benzyl-2,3,4,5-tetrahydro-3-methyl-6-oxo-7-phenyl-6H-pyrido[2,3-b][1,5]oxazocine] | 139 to 141 °C |

The next lines start with the values.

| melting point | Structure (SMILES) |
| --- | --- |
| 200 to 201 °C | O=C1c2c(-c3ccccc3)ccnc2OCCN1Cc1cc(C(F)(F)F)cc(C(F)(F)F)c1 [Reference Example 65, 4-[3,5-Bis(trifluoromethyl)benzyl]-2,3,4,5-tetrahydro-5-oxo-6-phenylpyrido[3,2-f][1,4]oxazepine] |
| 242 to 243 °C | O=C1c2c(-c3ccccc3)ccnc2NCCN1Cc1cc(C(F)(F)F)cc(C(F)(F)F)c1 [Reference Example 75, 4-[3,5-Bis(trifluoromethyl)benzyl]-2,3,4,5-tetrahydro-5-oxo-6-phenyl-1H-pyrido[2,3-e][1,4]diazepine] |
| 164 to 165 °C | Cc1cc(-c2ccccc2)c2c(n1)OCCCN(Cc1cc(C(F)(F)F)cc(C(F)(F)F)c1)C2=O [Reference Example 88, 5-[3,5-Bis(trifluoromethyl)benzyl]-2,3,4,5-tetrahydro-9-methyl-6-oxo-7-phenyl-6H-pyrido[2,3-b][1,5]oxazocine] |
| 165 to 166 °C | CSCc1cc(-c2ccccc2)c2c(n1)OCCN(Cc1cc(C(F)(F)F)cc(C(F)(F)F)c1)C2=O [Reference Example 96, 4-[3,5-Bis(trifluoromethyl)benzyl]-2,3,4,5-tetrahydro-8-methylthiomethyl-5-oxo-6-phenylpyrido[3,2-f][1,4]oxazepine] |
| 188 to 191 °C | NCc1cc(-c2ccccc2)c2c(n1)OCCN(Cc1cc(C(F)(F)F)cc(C(F)(F)F)c1)C2=O [Reference Example 97, 8-Aminomethyl-4-[3,5-bis(trifluoromethyl)benzyl]-2,3,4,5-tetrahydro-5-oxo-6-phenylpyrido[3,2-f][1,4]oxazepine] |
| 152 to 154 °C | CNCc1cc(-c2ccccc2)c2c(n1)OCCN(Cc1cc(C(F)(F)F)cc(C(F)(F)F)c1)C2=O [Reference Example 98, 4-[3,5-Bis(trifluoromethyl)benzyl]-2,3,4,5-tetrahydro-8-methylaminomethyl-5-oxo-6-phenylpyrido[3,2-f][1,4]oxazepine] |
| 223 to 224 °C | CC(=O)NCc1cc(-c2ccccc2)c2c(n1)OCCN(Cc1cc(C(F)(F)F)cc(C(F)(F)F)c1)C2=O [Reference Example 102, 8-Acetylaminomethyl-4-[3,5-bis(trifluoromethyl)benzyl]-2,3,4,5-tetrahydro-5-oxo-6-phenylpyrido[3,2-f][1,4]oxazepine] |
| 194 to 195 °C | CS(=O)(=O)NCc1cc(-c2ccccc2)c2c(n1)OCCN(Cc1cc(C(F)(F)F)cc(C(F)(F)F)c1)C2=O [Reference Example 103, 4-[3,5-Bis(trifluoromethyl)benzyl]-2,3,4,5-tetrahydro-8-methanesulfonylaminomethyl-5-oxo-6-phenylpyrido[3,2-f][1,4]oxazepine] |
| 167 to 169 °C | CN1CCN(Cc2cc(C(F)(F)F)cc(C(F)(F)F)c2)C(=O)c2c(-c3ccccc3)ccnc2C1=O [Reference Example 105, 6-[3,5-Bis(trifluoromethyl)benzyl]-5,6,7,8,9,10-hexahydro-9-methyl-5,10-dioxo-4-phenylpyrido[2,3-f][1,4]diazocine] |
| 247 to 249 °C | Cc1cnc2c(c1-c1ccccc1)C(=O)N(Cc1cc(C(F)(F)F)cc(C(F)(F)F)c1)CCCN(C)C2=O [Reference Example 108, 6-[3,5-Bis(trifluoromethyl)benzyl]-6,7,8,9,10,11-hexahydro-3,10-dimethyl-5,11-dioxo-4-phenyl-5H-pyrido[2,3-g][1,5]diazonine] |
| 145 °C (dec.) | CNC(=O)c1cc(-c2ccccc2)c2c(n1)OCCN(Cc1cc(C(F)(F)F)cc(C(F)(F)F)c1)C2=O [Reference Example 112, 4-[3,5-Bis(trifluoromethyl)benzyl]-N-methyl-2,3,4,5-tetrahydro-5-oxo-6-phenylpyrido[3,2-f][1,4]oxazepine-8-carboxamide] |
| 235 to 236 °C | CN(C)C(=O)c1cc(-c2ccccc2)c2c(n1)OCCN(Cc1cc(C(F)(F)F)cc(C(F)(F)F)c1)C2=O [Reference Example 113, 4-[3,5-Bis(trifluoromethyl)benzyl]-N,N-dimethyl-2,3,4,5-tetrahydro-5-oxo-6-phenylpyrido[3,2-f][1,4]oxazepine-8-carboxamide] |
| 194 to 196 °C | CCCCNC(=O)c1cc(-c2ccccc2)c2c(n1)OCCN(Cc1cc(C(F)(F)F)cc(C(F)(F)F)c1)C2=O [Reference Example 114, 4-[3,5-Bis(trifluoromethyl)benzyl]-N-n-butyl-2,3,4,5-tetrahydro-5-oxo-6-phenylpyrido[3,2-f][1,4]oxazepine-8-carboxamide] |
| 218 to 220 °C | O=C(c1cc(-c2ccccc2)c2c(n1)OCCN(Cc1cc(C(F)(F)F)cc(C(F)(F)F)c1)C2=O)N1CCCCC1 [Reference Example 115, 4-[3,5-Bis(trifluoromethyl)benzyl]-2,3,4,5-tetrahydro-5-oxo-6-phenyl-8-piperidinocarbonylpyrido[3,2-f][1,4]oxazepine] |
| 265 to 266 °C | O=C(c1cc(-c2ccccc2)c2c(n1)OCCN(Cc1cc(C(F)(F)F)cc(C(F)(F)F)c1)C2=O)N1CCOCC1 [Reference Example 116, 4-[3,5-Bis(trifluoromethyl)benzyl]-2,3,4,5-tetrahydro-8-morpholinocarbonyl-5-oxo-6-phenylpyrido[3,2-f][1,4]oxazepine] |

Reference: patent US20020132817A1, “Heterocyclic compounds, their production and use” (priority 1998, published 2002)
